Consider 26 compounds from ChEMBL document CHEMBL5338795, “Novel Triazoles with Potent and Broad-Spectrum Antifungal Activity In Vitro and In Vivo” (J Med Chem, 2023).

As usually defined, the MIC80 is the lowest concentration that inhibits either 80% of growth or 80% of the strains tested, depending on the study.

Molecules are shown by their SMILES. Values after ≈ are worked out from the molar mass of the structure shown.

The assay relates to Candida albicans. Kind of assay: Antifungal activity against Candida albicans SC5314 assessed as reduction in fungal growth incubated for 24 hrs by CLSI based microdilution analysis. Type of assay: functional. For orientation: Dilution methods test growth across graded concentrations, often in twofold steps.

Consider `OC(CN1CCN(CCCCCn2ccc3cc(Br)ccc32)CC1)(Cn1cncn1)c1ccc(F)cc1F` (stereo unspecified), for which the MIC80 came to 0.125 µg/mL (≈ 0.213 µM).

As for `COc1ccc2c(cnn2CCN2CCN(CC(O)(Cn3cncn3)c3ccc(F)cc3F)CC2)c1` (stereo unspecified), the MIC80 was determined as 0.062 µg/mL (≈ 0.125 µM).

`O=C(c1cc2cc(F)ccc2oc1=O)N1CCN(CC(O)(Cn2cncn2)c2ccc(F)cc2F)CC1` (stereo unspecified): the MIC80 amounted to 0.25 µg/mL (≈ 0.487 µM).

Turning to `COc1ccc2c(ccn2CCN2CCN(CC(O)(Cn3cncn3)c3ccc(F)cc3F)CC2)c1` (stereo unspecified), the MIC80 was 0.031 µg/mL (≈ 0.0624 µM).

Consider `OC(CN1CCN(CCn2ccc3ccccc32)CC1)(Cn1cncn1)c1ccc(F)cc1F` (stereo unspecified), for which the MIC80 is 0.031 µg/mL (≈ 0.0664 µM).

On to `O=C(c1cc2cc(Br)ccc2oc1=O)N1CCN(CC(O)(Cn2cncn2)c2ccc(F)cc2F)CC1` (stereo unspecified), for which the MIC80 was found to be 0.125 µg/mL (≈ 0.218 µM).

`OC(CN1CCN(CCn2ccc3cc(Cl)cnc32)CC1)(Cn1cncn1)c1ccc(F)cc1F` (stereo unspecified): the MIC80 is 0.062 µg/mL (≈ 0.124 µM).

For the compound `O[C@](CN1CCN(CCn2ccc3cc(Br)ccc32)CC1)(Cn1cncn1)c1ccc(F)cc1F`, the MIC80 came out at 25 µg/mL (≈ 45.8 µM).

`OC(CN1CCN(CCCCCCCCCn2ccc3cc(Br)ccc32)CC1)(Cn1cncn1)c1ccc(F)cc1F` (stereo unspecified): the MIC80 was determined as 0.25 µg/mL (≈ 0.388 µM).

Regarding `O=S(=O)(c1ccc(Cl)cc1)N1CCN(CC(O)(Cn2cncn2)c2ccc(F)cc2F)CC1` (stereo unspecified), the MIC80 was 0.125 µg/mL (≈ 0.251 µM).

With `OC(CN1CCN(CCOc2ccc3c(c2)OCO3)CC1)(Cn1cncn1)c1ccc(F)cc1F` (stereo unspecified), the MIC80 worked out at 0.125 µg/mL (≈ 0.256 µM).

As for `OC(CN1CCN(CCn2ncc3cc(Br)ccc32)CC1)(Cn1cncn1)c1ccc(F)cc1F` (stereo unspecified), the MIC80 was 0.062 µg/mL (≈ 0.113 µM).

Consider `COc1ccc2c(ccn2CCCCCCN2CCN(CC(O)(Cn3cncn3)c3ccc(F)cc3F)CC2)c1` (stereo unspecified), for which the MIC80 turned out to be 0.25 µg/mL (≈ 0.452 µM).

Turning to `OC(CN1CCN(CCCCCCn2ccc3ccc(F)cc32)CC1)(Cn1cncn1)c1ccc(F)cc1F` (stereo unspecified), the MIC80 was determined as 0.125 µg/mL (≈ 0.231 µM).

Regarding `O=C(c1cc2ccccc2oc1=O)N1CCN(CC(O)(Cn2cncn2)c2ccc(F)cc2F)CC1` (stereo unspecified), the MIC80 was 0.062 µg/mL (≈ 0.125 µM).

As to `OC(CN1CCN(CCn2ncc3cc(I)ccc32)CC1)(Cn1cncn1)c1ccc(F)cc1F` (stereo unspecified), the MIC80 came out at 0.062 µg/mL (≈ 0.104 µM).

On to `O=C(c1cccc2ccccc12)N1CCN(CC(O)(Cn2cncn2)c2ccc(F)cc2F)CC1` (stereo unspecified), for which the MIC80 worked out at 0.25 µg/mL (≈ 0.524 µM).

On to `O=C(c1ccc2ncccc2c1)N1CCN(CC(O)(Cn2cncn2)c2ccc(F)cc2F)CC1` (stereo unspecified), for which the MIC80 came out at 0.125 µg/mL (≈ 0.261 µM).

Take `COc1ccc2c(ccn2CCCCCCCCCCN2CCN(CC(O)(Cn3cncn3)c3ccc(F)cc3F)CC2)c1` (stereo unspecified): the MIC80 turned out to be 0.5 µg/mL (≈ 0.821 µM).

On to `OC(CN1CCN(CCc2ccccc2)CC1)(Cn1cncn1)c1ccc(F)cc1F` (stereo unspecified), for which the MIC80 was determined as 0.125 µg/mL (≈ 0.292 µM).

With `OC(CN1CCN(CCc2cccc3ccccc23)CC1)(Cn1cncn1)c1ccc(F)cc1F` (stereo unspecified), the MIC80 was found to be 0.25 µg/mL (≈ 0.523 µM).

For the compound `COc1ccc2c(ccn2CCCCCN2CCN(CC(O)(Cn3cncn3)c3ccc(F)cc3F)CC2)c1` (stereo unspecified), the MIC80 turned out to be 0.125 µg/mL (≈ 0.232 µM).

On to `O=S(=O)(c1ccc(F)cc1)N1CCN(CC(O)(Cn2cncn2)c2ccc(F)cc2F)CC1` (stereo unspecified), for which the MIC80 was 0.125 µg/mL (≈ 0.26 µM).

As for `Cc1ccc(S(=O)(=O)N2CCN(CC(O)(Cn3cncn3)c3ccc(F)cc3F)CC2)cc1` (stereo unspecified), the MIC80 was determined as 0.125 µg/mL (≈ 0.262 µM).

For `O=C1C(=O)N(CCN2CCN(CC(O)(Cn3cncn3)c3ccc(F)cc3F)CC2)c2ccc(Br)cc21` (stereo unspecified), the MIC80 was determined as 0.062 µg/mL (≈ 0.108 µM).

For the compound `O=C(c1ccc2ccccc2c1)N1CCN(CC(O)(Cn2cncn2)c2ccc(F)cc2F)CC1` (stereo unspecified), the MIC80 stood at 0.062 µg/mL (≈ 0.13 µM).
